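Grown in 96-well plates, cells were treated for 48 hours with each compound at five concentrations. Insufficient inhibition: endpoint recorded as highest concentration tested. At the GI50, growth is halved. TGI: total growth inhibition.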
Key:
Assay in all cases: growth of human tumour cells (NCI), 48 h
[1] = system: HL-60(TB) leukemia
[2] = system: UO-31 renal
[3] = system: SR leukemia
[4] = system: EKVX NSCLC
[5] = system: MALME-3M melanoma
[6] = system: NCI-H460 lung
[7] = system: NCI/ADR-RES ovarian
[8] = system: DU-145 prostate
[9] = system: HOP-92 NSCLC
[10] = system: IGROV1 ovarian
[11] = system: MDA-MB-435
[12] = system: PC-3 prostate
[13] = system: SNB-75 CNS
[14] = system: 786-0 renal
[15] = system: NCI-H226 lung
[16] = system: SK-MEL-2 melanoma
[17] = system: SNB-19 CNS
[18] = system: COLO 205 colon
[19] = system: MDA-MB-231 breast
[20] = system: OVCAR-5 ovarian
[21] = system: K-562 leukemia
[22] = system: A549 NSCLC
[23] = system: UACC-257 melanoma
[24] = system: MCF7 breast
[25] = system: HCT-116 colon
[26] = system: T-47D breast
[27] = system: HS 578T breast
[28] = system: HCC-2998 colon
[29] = system: A498 renal

Molecule `CCN1CCN(Cc2ccc(NC(=O)c3nc4ccc5[nH]ncc5c4c4c3CCCC4)cc2C(F)(F)F)CC1` has a GI50 [1] of 983 nM, a TGI [1] of 1990 nM and a GI50 [2] of 729 nM. For the same molecule, the TGI [2] was 1400 nM, the GI50 [3] was 1190 nM and the TGI [3] was 2650 nM. The GI50 [4] was 2090 nM, the TGI [4] was 8810 nM and the GI50 [5] was 827 nM. It also gave a TGI [5] of 1590 nM, a GI50 [6] of 935 nM and a TGI [6] of 1780 nM. For the same molecule, the GI50 [7] was 1080 nM, the TGI [7] was 2820 nM and the GI50 [8] was 1250 nM. It also gave a TGI [8] of 2980 nM, a GI50 [9] of 1610 nM and a TGI [9] of 7650 nM. The GI50 [10] was 892 nM, the TGI [10] was 1720 nM and the GI50 [11] was 918 nM. It also gave a TGI [11] of 1670 nM, a GI50 [12] of 1300 nM and a TGI [12] of 4200 nM. It also gave a GI50 [13] of 1060 nM, a TGI [13] of 7170 nM and a GI50 [14] of 886 nM. The TGI [14] was 1650 nM, the GI50 [15] was 2980 nM and the TGI [15] was 13600 nM. The GI50 [16] was 850 nM, the TGI [16] was 1900 nM and the GI50 [17] was 931 nM. For the same molecule, the TGI [17] was 2010 nM, the GI50 [18] was 861 nM and the TGI [18] was 1680 nM. The GI50 [19] was 879 nM, the TGI [19] was 1660 nM and the GI50 [20] was 1480 nM. It also gave a TGI [20] of 5460 nM, a GI50 [21] of 827 nM and a TGI [21] of 2120 nM. It also gave a GI50 [22] of 1320 nM, a TGI [22] of 3800 nM and a GI50 [23] of 938 nM. The TGI [23] was 1840 nM, the GI50 [24] was 884 nM and the TGI [24] was 1840 nM. It also gave a GI50 [25] of 870 nM, a TGI [25] of 1700 nM and a GI50 [26] of 854 nM. It also gave a TGI [26] of 1920 nM, a GI50 [27] of 969 nM and a TGI [27] of 2130 nM. The GI50 [28] was 816 nM, the TGI [28] was 1590 nM and the GI50 [29] was 6890 nM. The TGI [29] was 14400 nM.

— PubChem BioAssay (NCI)
